In patent US20030113330A1, “Methods for treating pulmonary fibrosis” (priority 1999, published 2003):
Where no end group is shown, it is not given here. The star is where a group is joined. CH2Cl = ClC*; CH2F = FC*

Key:
primary rat AEC [1] = settings: captopril 500 ng/ml, saralasin 50 ug/ml, Losartan 5 pg/ml; amiodarone 2.5 ug/ml for chelerythrine, orthovanadate
Description: The human lung adenocarcinoma cell line A549 (ATCC) was cultured in Ham's F12 medium supplemented with 10% fetal bovine serum (FBS). Primary alveolar epithelial cells were isolated from adult male Wistar rats. The primary cells were studied at day two of culture, a time at which they are type II cell-like by accepted morphologic and biochemical criteria. […] All cells were seeded in 24-well or 6-well chambers, and all experiments were conducted at subconfluent densities of 80-90% in serum-free Ham's F12 medium. Test reagents were diluted with Ham's F12 medium and were applied for 20 hours at 37C. in a 5% CO2 incubator.
Apoptotic cells were detected using propidium iodide (PI) following digestion of ethanol-fixed cells with DNAse-free RNAse in PBS containing 5 ug/ml PI. […] In replicate culture vessels, necrosis was detected as the loss of exclusion of PI after application of the vital dye directly to the cell culture medium at 5 ug/ml final concentration. Red fluorescent (PI-POSITIVE) cells (>570 nm) were scored over the subsequent hour as a percentage of the total cells in any given field. A minimum of 4 separate fields were scored in each of three separate culture vessels per experiment condition; all experiments were performed at least twice and the data were compiled. Although all necrotic cells are PI-positive, some apoptotic cells may also take up the dye but these comprise a minor fraction of the total dead cell population.
In all assays, detached cells were retained by centrifugation of the culture vessel at 300×g for 10 minutes with a centrifuge rotor designed for culture plates. For detection of necrosis (dye exclusion of PI), the PI was added directly to the cell culture medium immediately before centrifugation of the culture vessel. For detection of apoptosis, ethanol was added directly to the cell culture medium to a final concentration of 70% immediately before the centrifugation. Afterward, the ethanol was carefully removed and the total cell population (attached plus sedimented detached cells) were stained with PI as described above.

[2] = test system: primary alveolar epithelial cells (AEC); experiment: Bleomycin-induced apoptosis of primary AEC in vitro
Description: (§1) Lung Cell Isolation and Detection of Apoptosis In Vitro. Primary alveolar epithelial cells (AEC) were isolated from adult male Wistar rats as described above. The primary cells were studied at day two of culture, a time at which they are type II cell-like by accepted morphologic and biochemical criteria, see Paine et al., Am. J. Physiol. […] All cells were seeded in 24-well or 6-well chambers, and all experiments were conducted at subconfluent densities of 80-90% in serum-free Ham's F12 medium. Test reagents were diluted with Ham's F12 medium and were applied for 20 hours at 37° C. in a 5% CO2 incubator.
(§2) Detection of apoptotic cells with propidium iodide (PI) was conducted as described above, following digestion of ethanol-fixed cells with DNAse-free RNAse in PBS containing 5 ug/ml PI.
Apoptosis was detected as described above.

primary rat AEC [3] = experiment: Fas ligand-induced apoptosis of primary rat alveolar epithelial cells; type: cell-based; settings: captopril, lisinopril 500 ng/ml; caspase inhibitors 60 uM
Description: as §1, §2
Expression of FAS by alveolar epithelial cells is observed during bleomycin-induced fibrogenesis in mice. See Hagimoto, et al., Am. J. Respir. Cell Mol. Biol. 16:91-101 (1997). […] Apoptosis was detected by quantitation of fragmented nuclei (see above).
Cell Culture and Detection of Apoptosis. The human lung adenocarcinoma cell line A549 was obtained from American Type Culture Collection and cultured in Ham's F12 medium supplemented with 10% fetal bovine serum (FBS). Primary alveolar epithelial cells were isolated from adult male Wistar rats as described earlier (Uhal, B. D., I. Joshi, A. True, S. Mundle, A. Raza, A. Pardo and M. Selman. Fibroblasts isolated after fibrotic lung injury induce apoptosis of alveolar epithelial cells in vitro. Am. J. Physiol. 269:L819-L828, 1995); Wang, R., A. Zagariya, 0. Ibarra-Sunga, C. […] Am. J. Physiol. 276:L885-L889 (1999)). […] All cells were seeded in 24-well or 6-well chambers, and all experiments were conducted at subconfluent densities of 80-90% in serum-free Ham's F12 medium. Test reagents were diluted with serum-free Ham's F12 medium and were applied under serum-free conditions for 20 hours at 37C. in a 5% CO2 incubator. Detection of apoptotic cells with propidium iodide (PI) was conducted as described above Am. J. Physiol. 275:L1013-1017 (1998); Uhal et al., following digestion of ethanol-fixed cells with DNAse-free RNAse in PBS containing 5 μg/ml PI. In all assays, detached cells were retained by centrifugation of the culture vessels during fixation with 70% ethanol, or by retention of culture media and recovery by centrifugation before assay.
Apoptosis was detected by nuclear fragmentation as described above.

[4] = test system: primary rat alveolar epithelial cells; experiment: Apoptosis of rat AEC induced by human lung fibroblast-conditioned media; type: cell-based; settings: saralasin 50 ug/ml, DEVD-fmk 60 uM, anti-ANGII IgG 1 ug/ml
From the text: Fibroblast Isolation, Culture and Preparation of Conditioned Media. Primary human lung fibroblasts were isolated at the National Institute of Respiratory Diseases, Mexico. […] Of these, “fibrotic” lung fibroblast strains (HIPF-X, where X=patient number) were derived from patients suffering from either of two different types of interstitial lung disease (ILD): Idiopathic Pulmonary Fibrosis (IPF) and Chronic Hypersensitivity Pneumonitis (CHP). In both diseases, patients had clinical, functional and radiologic features which fulfill the diagnostic criteria for an ILD. […] Briefly, all patients had progressive dyspnea, bilateral reticulonodular images on chest roentgenogram, restrictive lung functional impairment with decreased lung volumes and compliance, and hypoxemia at rest that worsened with exercise. […] Patients with IPF had neither antecedents of any occupational or environmental exposure nor other known cause of ILD. […] Biopsies lacked granulomas, vasculitis, microorganisms, and inorganic material by polarized light microscopy.
Control fibroblasts were obtained from individuals having undergone a lobectomy for removal of a primary lung tumor. […] Lung fibroblasts from normal or fibrotic tissue were isolated by trypsin dispersion, and fibroblast strains were established in Dulbecco's modified Eagle's medium (or in Ham's F-12 medium) supplemented with 10% fetal calf serum, 200 U/ml penicillin, and 200 mg/ml streptomycin. […]
Epithelial Cell Culture and Detection of Apoptosis. […] All epithelial cell preparations were greater than 90% pure as determined by acridine orange uptake into lamellar bodies. […] Epithelial cell apoptosis was detected by the assessment, under fluorescence microscopy, of chromatin condensation and nuclear fragmentation within cytokeratin-positive cells after ethanol fixation and staining with propidium iodide. […]
The percentage increase in rat AEC apoptosis was determined by propidium iodide assay of primary alveolar epithelial cells exposed to serum-free conditioned media, see Uhal et al., Am.

primary rat AEC [5] = experiment: Angiotensin II-induced apoptosis in primary rat AEC (nuclear fragmentation, PI); type: cell-based; settings: ANGII 5.0 uM; saralasin 50 ug/ml, lisinopril 500 ng/ml
From the text: Cell Culture. The human lung adenocarcinoma cell line A549 was obtained from American Type Culture Collection and cultured in Ham's F12 medium supplemented with 10% fetal bovine serum (FBS). Primary alveolar epithelial cells were isolated from adult male Wistar rats as described in Uhal et al., Am. J. Physiol. Suppl. (Oct.) 261:110-117 (1991) and Uhal et al., Am. J. Physiol. 269:L819-L828 (1995). The primary cells were studied at day two of culture, a time at which they are type II cell-like by accepted morphologic and biochemical criteria, see Uhal, Am. J. Physiol. 272:L1031-L1045 (1997). […] J. Physiol. Suppl. (October) 261:110-117 (1991). All cells were seeded in 24-well or 6-well chambers, and all experiments were conducted at subconfluent densities of 80-90% in serum-free Ham's F12 medium. Test reagents were diluted with Ham's F12 medium and were applied for 20 h at 37° C. in a 5% CO2 incubator.
Detection of Apoptosis. Detection of apoptotic cells with propidium iodide (PI) was conducted as described in Uhal, et al., Am. J. Physiol. 275:L1013-1017 (1998) following digestion of ethanol-fixed cells with DNAse-free RNAse in PBS containing 5 ug/ml PI. Assay of Annexin V binding by flow cytometry was performed essentially as described for human lung fibroblasts in Uhal, et al., Am. J. Physiol. 275:L998-L1005 (1998) after trypsinization of cells from culture vessels. Assay of Caspase-3 activity was performed on viable suspension cultures as reported in Uhal, et al., Am. J. Physiol. 275:L1013-1017 (1998). In all assays, detached cells were retained by centrifugation of the culture vessels during fixation with 70% ethanol, or by retention of culture media and recovery by centrifugation before assay.
For microscopy, cells were cultured on glass cover slips, incubated with test reagents and fixed with 70% ethanol. The fixed cells were immunolabeled overnight at 4° C. with monoclonal antibodies to cytokeratins 7 and 19 (Chemicon International, Temecula, Calif.), and then for one hour at 37° C. with anti-mouse IgG-rhodamine and DNAse-free RNAse (Boehringer Mannheim, Indianapolis, Ind.) The cover slips were then rinsed in distilled water three times and mounted under Fluoromount Solution (Southern Biotechnology Associates, Birmingham, Ala.) containing 5 ug/ml propidium iodide. Photomicroscopy was performed as described in Uhal, et al., Am. J. Physiol. 275:L1013-1017 (1998).
Apoptosis in alveolar epithelial cells was quantitated by fluorescence detection of chromatin condensation and nuclear fragmentation in alcohol-fixed cells stained with propidium iodide. See Uhal, et al., Am. J. Physiol. 275:L1013-1017 (1998). […] After 20 h, the culture vessel was centrifuged to retain detached cells and labeled with anticytokeratin antibodies and propidium iodide. […] Double labeling with PI and monoclonal antibodies to cytokeratins 7 and 19 identified cells with both apoptotic nuclear morphology and positive anticytokeratin immunoreactivity.

adult male Wistar rats = settings: 8 U/kg intratracheal, 14 days
Description: Adult male Wistar rats were given intratracheal instillations of 8 U/kg bleomycin sulfate (BLEO) or sterile saline. […] Lung fibrosis was assessed by picrosirius red (PR) quantitation of lung collagen and by hydroxyproline (HP) assay at 14 days after BLEO administration. At the same time point, fragmented DNA in lung epithelial cells was detected by in situ end labeling (ISEL).
Animals and Induction of Pulmonary Fibrosis. Forty adult male Wistar rats, 175-200 grams, were divided into four groups; three groups received a single intratracheal instillation of 8 units per kilogram of bleomycin sulfate (BLEO) in sterile saline. Two days before the administration of BLEO, one group received captopril in the drinking water at a concentration of 500 mg/liter. […] Control animals (NORM) received administrations of the vehicles only.
Immediately before sacrifice, animals were given intraperitoneal injections of sodium pentobarbital and the trachea was cannulated. The middle right lobe was ligated at the hilus, was excised distal to the ligation and was immediately frozen in liquid N2 for hydroxyproline assay of total collagen (see below). The remaining lung tissues were carefully removed and were instilled with 4% paraformaldehyde in PBS at 20 cm H2O constant pressure, then immersed in the same fixative for two hours. The fixed tissues were washed with PBS three times for 15 minutes and were then embedded in paraffin. Five-micron sections of lung were deparaffinized by passing through xylene, xylene:alcohol 1:1, 100% alcohol and 70% alcohol for 10 minutes each. Ethanol was removing by rinsing with distilled water.
In situ end-labeling (ISEL) of fragmented DNA. ISEL was conducted by a modification of the method of Mundle et al., Cell Death and Differentiation, 1: 117-122 (1994). Briefly, ethanol was removed from deparaffinized lung sections by rinsing in distilled water for at least 10 minutes. The slides were then placed in 3% hydrogen peroxide (Sigma Chemical, St. Louis, Mo.) for 30 minutes at 20° C., rinsed with PBS, and incubated with Proteinase K (Sigma Chemical, St. Louis, Mo.) in saline sodium citrate solution (SSC) (0.3 M NaCi and 30 mM sodium citrate in water, pH 7.0) for 15 minutes at 37° C. Samples were rinsed once in water, three times in 0.15 M PBS for 4 minutes each, and then incubated in SSC at 80° C. for 20 minutes. After four rinses in PBS and four rinses in Buffer A (50 mM Tris/HCl, 5 mM MgCl, 10 mM β-mercaptoethanol and 0.005% BSA in water, pH 7.5), the sections were incubated at 18° C. for two hours with ISEL solution (0.001 mM digoxigenin-dUTP, 20 U/ml DNA Polymerase 1 and 0.01 mM each of dATP, dCTP and dGTP in Buffer A). The sections were then rinsed thoroughly five times with Buffer A and three times with PBS. Detection of incorporated dUTP was achieved by incubation for two hours at 37° C. with AP-conjugated anti-digoxigenin (Boerhinger Mannheim, Indianapolis, Ind.) at a 1:400 dilution. Bound AP-antibody complexes were detected with the Fast Blue chromogen system and the sections were mounted with Fluoromount Solution (Southern Biotechnology, Birmingham, Ala.).
Identification of Collagen. Collagens were localized through staining of lung sections by the picrosirius red technique, see Pick et al., Am. J. Pathol. 134:365-371 (1989), which has absolute specificity for collagen. Briefly, sections deparaffinized with xylenes were rehydrated through a descending series of ethanols to distilled water. The hydrated sections were immersed in 0.2% aqueous phosphomolybdic acid for 2 minutes, rinsed in distilled water and then stained for 110 minutes with 0.1% Sirius Red F3BA (Pfal and Bauer, Stamford, Conn.) in saturated aqueous picric acid, pH 2.0. The sections were washed for 2 minutes in 0.01 N HCl, rinsed for 45 seconds in 70% ethanol, dehydrated in three changes of absolute alcohol, cleared in xylene and mounted in a nonaqueous mounting medium.

## [Na+].[Na+].[Na+].[O]=[V]([O-])([O-])[O-] [sodium orthovanadate]
Primary rat AEC [1]
  inhibition of amiodarone-induced apoptosis: not

## O=C(O)C1=CC(=C(c2ccc(O)c(C(=O)O)c2)c2ccc(O)c(C(=O)O)c2)C=CC1=O [aurintricarboxylic acid]
[2]; Rattus norvegicus, Epithelial cell, read-out: inhibition of bleomycin-induced apoptosis of AEC in vitro
  inhibition at 10 µM: 59%

## Asp-Glu-Val-Asp-[O-Me]-CH2F (DEVD(OMe)-CH2F; not fully specified; printed as Asp-Glu-Val-Asp-[O-Me]-CH2F) [DEVD-fmk]
Primary rat AEC [3]
  inhibition of Fas ligand-induced apoptosis of primary rat AEC (words): comparable efficacy to inhibit apoptosis
[4]
  inhibition of apoptosis induced by HIPF-conditioned media: completely abrogated

## Tyr-Val-Ala-Asp-[O-Me]-CH2Cl (YVAD(OMe)-CH2Cl; not fully specified; printed as Tyr-Val-Ala-Asp-[O-Me]-CH2Cl) [YVAD-cmk]
Primary rat AEC [3]
  inhibition of Fas ligand-induced apoptosis of primary rat AEC (words): comparable efficacy to inhibit apoptosis

## COc1ccc2c(c[n+](C)c3c4cc5c(cc4ccc23)OCO5)c1OC [chelerythrine]
Primary rat AEC [5]
  inhibition of ANGII-induced apoptosis of primary rat AEC: significantly inhibited
Primary rat AEC [1]
  inhibition of amiodarone-induced apoptosis: significantly inhibited

## bleomycin sulfate
Adult male Wistar rats
  increase in alveolar septal collagen (picrosirius red): 100%
  increase in peribronchial collagen (picrosirius red): 133%
[2]; 20 h
  concentration at which induction of apoptosis was statistically significant: 5 µM
